In patent publication US20230346743A1, “COMBINATION CANCER THERAPIES” (The Board of Regents of the University of Oklahoma, priority 2018, published 2023):

Assays:
TP21 gene = assay: qRT-PCR of TP21 in SKOV3 cells; assay type: cell-based, human; conditions: SKOV3 parental (p53 null) and R273H m-p53 cells; SHetA2 10 µM, PRIMA-1 20 µM, 16 h
[1] = system: MESOV human ovarian cancer cells; assay: Tumor establishment after intraperitoneal injection of MESOV cells (secondary chemoprevention model); assay type: in vivo; conditions: nu/nu mice, MESOV i.p.
Method: Four-week-old female athymic nude mice (NCr-Foxn1^nu) were obtained from Taconic Biosciences under an approved Institutional Animal Care and Use Committee (IACUC) protocol. Mice were acclimatized for two weeks, fed with a standard diet and ear tagged during the acclimatization period. The timing to tumor development after intraperitoneal injection with various amounts of MESOV cells was determined in a pilot study prior. In the intervention experiment, 6-week-old mice were injected with 20 million MESOV human ovarian cancer cells in their intraperitoneal region. Drug treatment was initiated 4 weeks after the injection of cancer cells. Mice were randomized to four treatment groups before the start of treatment based on their body weight. There was no significant (one-way ANOVA, p >0.999) difference in body weight between groups at the start of treatment. Twelve mice were allocated to each group based on the power analysis performed while designing experiment. […] Controls were gavaged with Kolliphor HS15 (30% in water). […] (10 mg/kg) was dissolved in phosphate buffered saline and injected into the peritoneum of mice every other day. Initially SHetA2 dosing was administered every day for two weeks in SHetA2 alone and drug combination groups, and then switched to every other day for the next three weeks due to the stress caused to the mice by daily gavage. Oral gavaging was performed with sterile disposable plastic feeding tubes 20 ga × 38 mm (Instech Laboratories, Inc., Plymouth Meeting, PA, USA). Three mice in the drug combination group died after two weeks of drug treatment due to gavaging incidents. Body weights were recorded and animal health was monitored weekly. After the end of drug intervention period, all mice were euthanized by CO2 asphyxiation followed by exsanguination, their tumors and other vital organs were collected for further analysis. After measuring the total tumor weight, a portion of the tumors were snap frozen in liquid nitrogen and another portion was formalin fixed. The formalin fixed tissue samples were paraffin embedded, sectioned and stained with hematoxylin and eosins for histology studies. An experienced pathologist reviewed blinded histology slides for kidney and liver toxicity. Presence or absence of tumor at the end of the treatment period was used as the primary outcome measure. […] Two by two logistic regression was used to compare the four treatment groups (Untreated control, SHetA2, […] combination) in the study. Mice in the first 3 groups had complete data, while 3 mice in the combo group died early and had zero tumor weights. […]

NCI 60-cell line panel = conditions: cited from earlier work
Cervical Cancer = assay: Dose reduction index at various fold effects in cervical cancer; assay type: cell-based, human; conditions: cell line not named
From the text: Combination Indices (CI's) were derived to determine the level of synergy using the Chow and Talalay method. […] The Dose Reduction Indices (DRIs) were derived to determine the level of reduction for one drug that could be allowed by addition of the second drug at various fold effects (Fas) of the combination treatment (Table 16).

p21 = assay: Western blots of p21 in ovarian cancer cell lines; assay type: cell-based, human; conditions: A2780, SKOV3, SKOV3 R273H, SKOV3 R248W
Method: (§1) Proteins were extracted from cell cultures using M-PER mammalian protein extraction reagent (ThermoFisher, Waltham, MA, USA) and volumes corresponding to 30 µg determined with BCA reagent (ThermoFisher, Waltham, MA, USA) were electrophoresed into a SDS-PAGE gel and transferred to PVDF membranes. Membranes were blocked (5% dry skim milk powder in TBST buffer) for at least 1 h or overnight, washed thrice with TBST and then incubated with primary antibody: p53 DO-1, β-actin, histone H3, GAPDH (Santa Cruz Biotechnology, Dallas, TX, USA) and mortalin, Tom20, V5 tag antibodies, p21, PARP, SLC7A11, caspase 3 (Cell Signaling Technology, Danvers, MA, USA) for at least 1 h or overnight. After three washes, membranes were incubated with anti-mouse HRP conjugated (Santa Cruz Biotechnology, Dallas, TX, USA) or anti-Rabbit HRP conjugated (Cell Signaling Technology, Danvers, MA, USA) for 40 min. Membranes then were washed and developed with ECL reagents (BioRad, Hercules, CA, USA). Bands were imaged and quantified (ChemiDoc imaging system with Image Lab Software/BioRad).

p53 = p53 cellular localization in hFTSECs; assay type: cell-based, human; conditions: 24 h
Method: Cytoplasmic and nuclear protein fractions were isolated from cultures using NE-PER Nuclear and Cytoplasmic Extraction Reagents (ThermoFisher, Waltham, MA, USA) and the Mitochondria/Cytosol Fractionation Kit (ThermoFisher, Waltham, MA, USA) and protein concentrations determined with BCA reagent (ThermoFisher, Waltham, MA, USA).
as §1, with “Software/BioRad). […]” for “Software/BioRad).”

With CC1(C)CC(C)(C)c2cc(NC(=S)Nc3ccc([N+](=O)[O-])cc3)ccc2S1 [SHetA2] the “TP21 transcription (qRT-PCR)” value (TP21 gene) was “induced TP21 transcription”, the “OR for preventing tumor development (additive logistic regression model)” value [1] was 10.384 and the Tumor-free rates ([1]; SHetA2 60 mg/kg gavage, PRIMA-1^MET 10 mg/kg i.p., treatment from day 28 for 38 days) was 42%. The “Activity against cancer cell lines” value (NCI 60-cell line panel) was “active against all cancers present in the NCI 60-cell line panel”, the “SHetA2 Dose” value (Cervical Cancer; Fold Effect (Fa) 0.05) was 5.44 and the “SHetA2 Dose” value (Cervical Cancer; Fold Effect (Fa) 0.75) was 8.23. For the same molecule, the “SHetA2 Dose” value (Cervical Cancer; Fold Effect (Fa) 0.90) was 12.43, the “SHetA2 Dose” value (Cervical Cancer; Fold Effect (Fa) 0.95) was 16.47 and the “p21 protein (Western blot)” value (p21) was “increased p21 protein in all cell lines evaluated regardless of p53 status”. For the same molecule, the p53 cellular localization (p53) was “minimal effects on p53 cellular localization”.
